Question: Which melting point does the source give for `COC(=O)c1nc(-c2ccc(Cl)cc2)c(F)c(N)c1OC` here?
Answer: The melting point was 93 to 94 °C.

Question: Which melting point does the source give for `Cc1nc(C)c(Cl)c(NCc2ccc(OCc3ccccc3)cn2)n1` here?
Answer: Its melting point is 130 to 131 °C.

Question: With `O=[N+]([O-])c1ccc(C=Cc2nccn2Cc2ccccn2)o1` as the molecule, how does the melting point read?
Answer: The melting point was 141 to 142 °C.

Question: For `CCc1cc(Oc2ccc([C@H](O)[C@@H](Cc3cccc(OC(F)(F)C(F)F)c3)NC(=O)c3cccc4c3C=CCCC4)cc2)ccc1Cl` (racemic), which melting point is on record?
Answer: Its melting point is 116 to 117 °C.

Question: With `O=c1n(-c2cc(O)c(Cl)cc2F)nc2ccc(Cl)cn12` as the molecule, how does the melting point read?
Answer: The melting point was > 210 °C.

Question: Which melting point does the source give for `Cc1cnc2c(c1)CCCC2(C)C(N)=S` (stereo not given) here?
Answer: The melting point was 164 °C.

Question: With `O=C(C1=NCCCCCN1)c1ccccc1` as the molecule, how does the melting point read?
Answer: The melting point was 70 to 71 °C.

Question: Which melting point does the source give for `N#CNC(=Nc1ccncc1)NCCOc1ccc(Cl)cc1` here?
Answer: The melting point was 174 to 177 °C.

Question: Which melting point does the source give for `COc1ccc(OC)c(C(=O)c2ccc(OCc3ccccc3)cc2)c1` here?
Answer: Its melting point is 111 to 113 °C.

Question: For `CN(C)c1ccc2nc(-c3cccc4ccccc34)[nH]c(=O)c2c1`, which melting point is on record?
Answer: The melting point was 254 to 255 °C.

Question: With `Cn1cc2c(=O)c(C(=O)c3ccccc3)cn(C)c2n1` as the molecule, how does the melting point read?
Answer: The melting point was 272 to 274 °C.

Question: For `O=C1CNC(c2ccc([N+](=O)[O-])cc2)=NN1`, which melting point is on record?
Answer: The melting point was 284 to 286 °C.

Question: With `CN1CC(=O)Nc2ccc(Br)cc2C1=O` as the molecule, how does the melting point read?
Answer: The melting point was 260 to 261 °C.

Question: Which melting point does the source give for `CCNc1nc2cccc(C(=O)O)c2n1Cc1ccc(-c2ccccc2-c2nnn[nH]2)cc1` here?
Answer: Its melting point is 240 to 242 °C.

Question: With `O=C(CCn1c2ccccc2c2ccccc21)OCCn1c2ccccc2c2ccccc21` as the molecule, how does the melting point read?
Answer: Its melting point is 163 to 165 °C.

Question: With `CCNS(=O)(=O)c1cccc(NC(=O)c2cnn3c(C(F)F)cc(-c4ccc(C(F)(F)F)c(OCC)c4)nc23)c1` as the molecule, how does the melting point read?
Answer: Its melting point is 222 °C.

Question: With `O=C(O)c1cccc(CN2CCC(c3cn(CCc4ccccn4)c4ccccc34)CC2)c1` as the molecule, how does the melting point read?
Answer: Its melting point is 141 to 142 °C.

Question: Which melting point does the source give for `CCCCc1[nH]c(CC)nc(=O)c1Cc1ccc(-c2ccccc2C(=O)O)cc1` here?
Answer: The melting point was 207 °C.

Question: With `O=C(Oc1ccccc1C(=O)Nc1cc(Cl)c(OC(=O)c2ccccc2)c(Cl)c1)c1ccccc1` as the molecule, how does the melting point read?
Answer: The melting point was 157 to 160 °C.

Question: Which melting point does the source give for `CSc1nn2c(N3CCN(C)CC3)cc(C)nc2c1S(=O)(=O)c1ccc(C(C)C)cc1` here?
Answer: Its melting point is > 230 °C.

Question: Which melting point does the source give for `COc1cc2cc(CO)c(CO)c(-c3ccnc(-n4c(=O)cc(C(=O)N(CCO)CCO)c5ccccc54)c3)c2cc1OC` here?
Answer: The melting point was 65 to 68 °C.

Question: With `O=C(O)c1cc2cc(-c3ccsc3)ccc2o1` as the molecule, how does the melting point read?
Answer: The melting point was 215 to 220 °C.

Question: With `CC(=O)Nc1cccc2c(Br)ccc(C)c12` as the molecule, how does the melting point read?
Answer: The melting point was 227 to 229 °C.

Question: With `CC(C)(C)C1COC1(Cn1cncn1)c1ccc(F)cc1` (stereo not given) as the molecule, how does the melting point read?
Answer: The melting point was 128 °C.

Question: With `COc1ccc2cc(N)ccc2c1` as the molecule, how does the melting point read?
Answer: Its melting point is 133 to 136 °C.

Question: Which melting point does the source give for `NCC1CCN(C(c2ccccc2)c2ccccc2)CC1` here?
Answer: Its melting point is 80 °C.

Question: With `CC(C)c1cccc(C(C)C)c1NC(=O)C(N)Cc1c[nH]c2ccccc12` (stereo not given) as the molecule, how does the melting point read?
Answer: Its melting point is 185 to 187 °C.

Question: With `COc1cc2cc3c(Cl)c(C#N)cnc3nc2cc1OC` as the molecule, how does the melting point read?
Answer: Its melting point is > 300 °C.

Question: With `Cc1c(C=O)cccc1-n1cccc1` as the molecule, how does the melting point read?
Answer: The melting point was 82 °C.

Question: For `CNC(=NCCS(=O)Cc1nccs1)NC#N` (stereo not given), which melting point is on record?
Answer: Its melting point is 110 °C.

Question: For `COc1ccc2c(c1)C(=O)c1nc(-c3ccccc3)sc1C2=O`, which melting point is on record?
Answer: Its melting point is 221 °C.

Question: With `C[C@H]1C=CC(Sc2ccccc2)=CC[C@H]1O` as the molecule, how does the melting point read?
Answer: The melting point was 54 to 56 °C.

Question: Which melting point does the source give for `O=C(O)c1cn(-c2nncs2)c2cc(F)c(F)cc2c1=O` here?
Answer: The melting point was 233 to 236 °C.

Question: For `CC(=O)OCCCCN1CCC(CNC(=O)[C@@H]2CCCN2S(=O)(=O)c2ccc(Cl)c(COc3cccc4c(-n5ccnc5)cc(C)nc34)c2Cl)CC1`, which melting point is on record?
Answer: The melting point was 86 °C.

Question: With `Cc1cc(SC(C)C)c(NC(=O)CN2CCN(CCSc3nc4cccc([N+](=O)[O-])c4o3)CC2)c(SC(C)C)n1` as the molecule, how does the melting point read?
Answer: Its melting point is 57 to 59 °C.

Question: For `Clc1ccc(-c2ccc(Br)cc2)nn1`, which melting point is on record?
Answer: The melting point was 201 to 203 °C.

Question: Which melting point does the source give for `Cc1cc(C)c(Nc2nc(C)nc(OC3CCOC3)c2C)c(C)c1` (stereo not given) here?
Answer: The melting point was 126 to 128 °C.

Question: For `Oc1cn(-c2c(Cl)cc(C(F)(F)F)cc2Cl)nc1C(F)(F)F`, which melting point is on record?
Answer: Its melting point is 186 to 188 °C.

Question: With `CCCCc1nc2ccc(O)cc2c(=O)n1Cc1ccc(-c2ccccc2-c2nnnn2COC)cc1` as the molecule, how does the melting point read?
Answer: The melting point was 157 to 159 °C.

Question: Which melting point does the source give for `CC(=O)Nc1cc(C(C)(C)C)[nH]n1` here?
Answer: The melting point was 194 to 195 °C.

Question: For `COC(=O)Cc1cc2c(cc1CC1NCCc3cc(OC)c(OC)cc31)OCO2` (stereo not given), which melting point is on record?
Answer: The melting point was 99 to 101 °C.

Question: With `CCOC(=O)C(=C1NCCCN1OC)[N+](=O)[O-]` as the molecule, how does the melting point read?
Answer: The melting point was 177 to 178 °C.

Question: Which melting point does the source give for `CC(=O)SCC(=O)C1CCC2C3CCC4CC(O)C(N5CCOC(C)(C)C5)CC4(C)C3C(=O)CC12C` (stereo not given) here?
Answer: The melting point was 181 to 182 °C.

Question: Which melting point does the source give for `CC(C)Cn1nc(OCCCCc2ccc(OC(C)C)cc2Oc2ncc(C(F)(F)F)cc2Cl)cc1CCC(=O)O` here?
Answer: Its melting point is 122 to 123 °C.

Question: For `CCOC(=O)C1=C(C)NC(N)=C(C(=O)OCC)C1c1ccccc1OC` (stereo not given), which melting point is on record?
Answer: The melting point was 170 °C.

Question: For `COC(=O)c1ccc2c(Cl)ccnc2c1`, which melting point is on record?
Answer: The melting point was 118 to 119 °C.

Question: Which melting point does the source give for `O=Cc1cc([N+](=O)[O-])c(Cl)cc1Cl` here?
Answer: Its melting point is 61 to 63 °C.

Question: Which melting point does the source give for `CC(C)c1cc(-c2ccc(F)cc2)nc(O)n1` here?
Answer: The melting point was 215 to 217 °C.

Question: Which melting point does the source give for `OCCc1coc2c(OC3CCCCO3)cccc12` (stereo not given) here?
Answer: Its melting point is 74 to 76 °C.

Question: For `Cc1ccnc(N2CCN(C(=O)CCCC3Cn4c(-c5cc(C)c(O)c(C)c5)c(C)c5cccc(c54)O3)CC2)c1` (stereo not given), which melting point is on record?
Answer: Its melting point is 112 °C.

Question: With `CC(=O)c1ccc2nc(-n3ccnc3)nc(NCCOCCO)c2c1` as the molecule, how does the melting point read?
Answer: The melting point was 164 to 166 °C.

Question: With `COC(=O)CC(=O)CN1C(=O)c2ccccc2C1=O` as the molecule, how does the melting point read?
Answer: Its melting point is 139 to 140 °C.

Question: For `CCC(C)OC(=O)C(Br)=CC1C(C(=O)OC(C#N)c2cccc(Oc3ccccc3)c2)C1(C)C` (stereo not given), which melting point is on record?
Answer: The melting point was 76 °C.

Question: For `O=c1c(Oc2ccccc2)nc2ccccc2n1-c1ccc(Cl)cc1`, which melting point is on record?
Answer: The melting point was 239 to 241 °C.

Question: For `CC1(C)c2ccccc2C(C#N)c2ccccc21`, which melting point is on record?
Answer: The melting point was 91 to 92 °C.

Question: With `CCNc1cc2ncnc(N3CCN(C(=O)Nc4ccc(Oc5ccccc5)cc4)CC3)c2cc1[N+](=O)[O-]` as the molecule, how does the melting point read?
Answer: The melting point was 242 to 244 °C.

Question: Which melting point does the source give for `Cc1ccc(-c2nccc3c(CCl)cccc23)cc1` here?
Answer: The melting point was 120 °C.

Question: For `O=C(c1cccc(CBr)c1)c1cccc(CBr)c1`, which melting point is on record?
Answer: Its melting point is 147 to 148 °C.

Question: Which melting point does the source give for `COC1C2=C3C(=CN1OC)OCCC3CC(C(C)=O)C2` (stereo not given) here?
Answer: Its melting point is 100 to 102 °C.

Question: For `CCOC(=O)CNc1ncccc1NC(=O)c1ccc(Br)cc1`, which melting point is on record?
Answer: The melting point was 153 to 154 °C.

Question: Which melting point does the source give for `CCC(Br)=C1NC(=O)N(C(C(=O)Nc2cc(NC(=O)C(CC)Oc3ccc(C(C)(C)CC)cc3C(C)(C)CC)ccc2Cl)C(=O)C(C)(C)C)C1=O` (stereo not given) here?
Answer: Its melting point is 129 to 131 °C.

Question: Which melting point does the source give for `CC[C@H]1[C@H](O)CC(=O)N1c1ccc(C#N)c(C(F)(F)F)c1` here?
Answer: Its melting point is 111 to 112 °C.

Question: With `Cc1c(C)c2c(c(C)c1O)CCC(C)(CCOc1ccc(CC3SC(=O)NC3=O)cc1)O2` (stereo not given) as the molecule, how does the melting point read?
Answer: The melting point was 152 to 154 °C.

Question: With `CCCCc1nc(CO)c(C(=O)N2CCC[C@H]2C(=O)OC)n1Cc1ccc(-c2ccccc2C(=O)O)cc1` as the molecule, how does the melting point read?
Answer: The melting point was > 120 °C.

Question: For `COc1cc(OC)cc(Oc2ncccc2OCCCc2ccncc2O)c1`, which melting point is on record?
Answer: Its melting point is 172 to 178 °C.

Question: Which melting point does the source give for `O=c1cc(CO)occ1OCCC12CC3CC(CC(C3)C1)C2` here?
Answer: Its melting point is 155 to 157 °C.

Question: With `O=C(O)C1C=Nc2c(cccc2[N+](=O)[O-])C1=O` (stereo not given) as the molecule, how does the melting point read?
Answer: Its melting point is 263 to 265 °C.

Question: For `COC(=O)c1ccc2[nH]c(=O)oc2c1`, which melting point is on record?
Answer: The melting point was 149 to 151 °C.

Question: For `Cc1c(NCCO)c(F)cc2c(=O)c(C(=O)O)cn(-c3cc(N)c(F)cc3F)c12`, which melting point is on record?
Answer: The melting point was 166 to 168 °C.

Question: Which melting point does the source give for `Cc1cc(-c2cnc(N)c(C(=O)Nc3cccnc3)n2)ccc1F` here?
Answer: Its melting point is 186 to 189 °C.

— a melting point compilation (Tetko et al.; mined from patent text by program, amines drawn as free bases though some values may be those of a salt)
